# Results taken from patent publication US8975234B2, “Anti-bacterial infection, inflammation, and leukemia composition and use thereof” (priority 2011, dated 2015).
# Legend:
# [1] = test system: MSSA (Methicillin-susceptible Staphylococcus aureus); test: Minimum inhibitory concentration (broth microdilution) and FIC index; format: cell-based; conditions: Staphylococcus aureus, MSSA, read-out: Minimum inhibitory concentration
# Experimental: A serial of twofold dilution of the tested antibiotics (oxacillin, erythromycin, ampicillin, kanamycin, levofoxacin, vancomycin and doxycycline) was perform by Broth microdilution method to a final concentration of 2-512 μg/mL. The bacterial overnight culture was collected and re-suspended in the Muller-Hilton (M-H) broth. An aliquot of cell suspension (OD600=0.1) was prepared. The bacterial suspensions were plated in 96-well plate and incubated with test antibiotics at 37° C. in a 5% CO2 incubator (Table 1 to Table 4).
# The […], […] and antagonism between two drugs was evaluated by the following formula:
# [formula] The criteria of fractional inhibitory concentration index: […]
# [2] = test system: human embryonic kidney cell line HEK 293; test: Cell viability assay (alamarBlue); format: cell-based; conditions: 40 μg/mL, 24 hours
# Experimental: (§1) Cell viability was measured using alamarBlue. For cell viability assays, human embryonic kidney cell line HEK 293 and human hepatoma cell line Hep G2 were plated 180 μL in each well on a 96-well plate (for HEK 293, at a density of about 10,000 cells/well; for Hep G2, at a density of about 7500 cells/well). The cells were grown overnight (16˜18 hours) and left to attach. After overnight incubation, 20 μL of Tellimagrandin II was added to give final concentrations of 0, 20, 30, 40 and 50 μg/mL. The cultures with 0 μg/mL Tellimagrandin II and without adding additional drug (medium only) were as controls. The cells are then incubated in a 5% CO2, 37° C. incubator for 24 hours. After 24 hours, 100 μL of alamarBlue was added to each well, and cultured in a 5% CO2, 37° C. incubator for 4 hours. Absorbance was monitored at 570 nm and 600 nm and cell viability was determined.
# [3] = test system: human hepatoma cell line Hep G2; test: Cell viability assay (alamarBlue); format: cell-based; conditions: 40 μg/mL, 24 hours
# Experimental: as §1
# [4] = test system: mouse macrophage cell line RAW264.7; test: Cell viability assay (alamarBlue); format: cell-based; conditions: 50 μg/mL or lower doses, 24 hours
# Experimental: AlamarBlue reagent was used to assess cell viability. RAW264.7 cells (2×10^4 in 200 μL of medium) were seeded on the 96-well plate. After overnight incubation, cells were serum starved in DMEM medium containing 2% Fetal Bovine Serum (FBS) for 3 hours. There were several groups: cells without DMSO or Tellimagrandin II treatment (controls); cell treated with DMSO (control); cells treated with Tellimagrandin II with different concentrations (10, 25, 50, 75 and 100 μM, diluted in DMSO) (test groups). Each group was determined in duplicate.
# After 24 hours, the cell medium was removed and discarded, and the cells were resuspended with 180 μL of fresh culture medium. Each cell suspension was added with 20 μL alamarBlue. The plate was then placed in incubator for another 4 hours. After incubation, the absorbance of the medium was measured at 570 and 600 nm, and cell viability was analyzed by using the following formula:
# [formula] • O1: molar extinction coefficient (E) of oxidized alamarBlue at 570 nm • O2: molar extinction coefficient (E) of oxidized alamarBlue at 600 nm • A1: absorbance of test wells at 570 nm • A2: absorbance of test wells at 600 nm • P1: absorbance of positive growth control well at 570 nm • P2: absorbance of positive growth control well at 600 nm
# [5] = test system: LPS-induced PGE2 in RAW264.7 cells; test: Prostaglandin E2 (PGE2) assay; format: cell-based, mouse; conditions: 25 or 50 μM added 30 minutes before LPS
# Experimental: One milliliter (1 mL) of murine macrophage cell line RAW264.7 (4×10^5 cells/mL) was seeded on a 12-well plate overnight. After overnight incubation, cells were serum starved in DMEM medium containing 2% Fetal Bovine Serum (FBS) for 3 hours. Then, Tellimagrandin II was added so that final concentrations of 10, 25 and 50 μM were obtained. Thus, after a 30-min incubation, murine macrophage cells were treated with LPS for 16 h and the cell culture supernatant was collected. Cell-free supernatants were diluted and PGE 2 in culture supernatants were detected by using a PGE2 assay kit (R&D system). The purpose of the study was to evaluate the LPS-induced PGE2 expression by co-treating with Tellimagrandin II.
# K-562 cells = test: Western blotting of apoptosis and cell cycle proteins; format: cell-based, human; conditions: 40 and 50 μM, 48 hours
# Experimental: A total of 3 mL cell solution at the concentration of 1×10^6K-562 cells per mL was cultured in 6 cm cell culture dish in an incubator supplied with 5% CO2 at 37° C. for 30 minutes so that cells could adapt to the environment. Tellimagrandin II solutions of different concentrations were added by order so that the final concentrations are 0, 40 and 50 μM, respectively. The solution was placed in incubator with 5% CO2 at 37° C. for 48 hours. After incubation, it was centrifuged at 1,000 rpm at 4° C. for 5 minutes and rinsed by PBS once. RIPA buffer solution containing protease inhibitors was added to decompose the cells.
# The solution was rapidly frozen with liquid nitrogen and unfrozen for three times to ensure that cells had been broken by the physical damages. The solution was centrifuged at 15,000 rpm at 4° C. for 30 minutes; the supernatant containing total cell protein was collected. Protein concentrations were determined by BCA protein assay. Finally, equal amounts of protein samples (40 μg) were boiled in 1× loading buffer for 3 minutes to decompose protein into primary structure for further protein gel electrophoresis (or stored at −80° C.).
# SDS-PAGE 10% or 12% was selected by the desired protein molecular weight in the protein gel electrophoresis (150 V, 17 mA for 2 hour and 5 minutes). The protein was transferred from the gel to PVDF membrane using wet transfer procedure (100 V, 300 mA for 30 minutes). The membrane was blocked at room temperature for one hour in Tris-buffered saline-Tween (TBS-T) buffer solution containing 2% Bovine serum albumin (BSA) to eliminate non-specifically binding.
# PVDF membrane was probed with primary antibody diluted with by the recommended amount according the manufacture in 2% BSA-TBS-T buffer solution at 4° C. for 16 to 18 hours. After the interaction completed, TBS-T buffer solution was used to rinse out the non-specifically bound primary antibody. TBS-T buffer solution was changed every 10 minutes for three times in about 30 minutes. Then, specific secondary antibody was added for interaction at room temperature for one hour. TBS-T buffer solution was used to rinse out the non-specifically bound secondary antibody. TBS-T buffer solution was changed every 10 minutes for six times in about 60 minutes. ECL System (Enhanced chemiluminescence system) was used and film was exposed to light and developed. Finally qualitative analysis was performed. […] Protein related to cell cycle regulation includes G2/M checkpoint regulators, Cyclin B1 and Cdc-25C.
smiles,measurement,setting,value
O=C(OC1O[C@@H]2COC(=O)c3cc(O)c(O)c(O)c3-c3c(cc(O)c(O)c3O)C(=O)O[C@H]2[C@H](OC(=O)c2cc(O)c(O)c(O)c2)[C@H]1OC(=O)c1cc(O)c(O)c(O)c1)c1cc(O)c(O)c(O)c1 (stereo partly shown) [Tellimagrandin II],MIC,[1],64 µg/mL
same,Cell viability,[2],at least 80%
same,Cell viability,[3],at least 80%
same,Cell viability,[4],not affected significant
same,expression of PGE2,[5],significantly reduced the expression of PGE2
same,Caspase-8 (inactive form),K-562 cells,decreases
same,"Caspase-9, Caspase-3, and Caspase-7",K-562 cells,activation
same,Cyclin B1 and Cdc-25C (non-phosphorylated) activity,K-562 cells,decreased
same,PARP,K-562 cells,ultimate activation
same,protein of anti-apoptosis Bcl-2,K-562 cells,decrease
